Assay results from patent US20170158702A1, “MULTIVALENT RAS BINDING COMPOUNDS” (KYRAS THERAPEUTICS, INC., priority 2015, published 2017).
Counter-ions that a name gives are not always drawn.

Tests used:
[1] = tested on: NCI-H460; assay: Viability assay with NCI-H460 (CellTiter-Glo cytotoxicity assay, 72 h); assay type: cell-based; details: NCI-H460 cell line, 72 h after compounds addition
Description: (§1) NCI-H460 (Epithelial lung tissue; carcinoma; large cell lung cancer) were cultured in RPMI Medium 1640 (Invitrogen-22400105) supplemented with 10% fetal bovine serum (FBS; Invitrogen-10099141). All the cell lines were maintained in a humidified incubator at 37° C. with 5% CO2. Cell culture media and supplements were purchased from Invitrogen, and tissue culture flasks were purchased from Corning, 96-well plates were purchased from Greiner. CellTiter-Glo Luminescent Cell Viability Assay kits were purchased from Promega (Promega-G7573), cells counter Vi-Cell was purchased from Beckman, D300e digital dispenser was purchased from Tecan, detection instrument Envision was purchased from PerkinElmer.
(§2) Paclitaxel was purchased from SELLECK, test compounds, such as any one of the compounds disclosed herein, attained solubility in DMSO and when diluted into culture media. DMSO, solutions containing the test compounds, and culture media were warmed to 37° C. or room temperature for the solution preparation and dilutions.
(§3) NCI-H460 Cell line were seeded in 96-well plates (1200/well) and allowed to adhere to overnight (100 uL/well), for drug treatments with 2 fold dilution, 9 dose points, triplicates or vehicle control, compound stock solutions were prepared in DMSO and use D300e digital dispenser to add compounds to the wells to give the indicated final drug concentrations. Final DMSO concentration was 0.5%. Cellular ATP concentrations were assessed by using the CellTiter-Glo Cell Viability Assay as per the manufacturer's instructions 72 h after compounds addition. Additional cells lines were assayed with any one of the compounds disclosed herein according to the procedures described for the viability assay with NCI-H460.

[2] = tested on: MIA PaCa-2; assay: Viability assay with MIA PaCa-2; assay type: cell-based; details: MIA PaCa-2, viability assay per Example 57
Description: as §1, §2, §3
A viability assay with MIA PaCa-2 (Epithelial pancreas tissue; carcinoma) was performed with compounds listed in Table 15, according to the procedures described in Example 57.

EC50 [2] [µM] | SMILES | EC50 [1] [µM]
≤ 5 | NCCCn1cc(-c2ccc(OC(F)(F)F)cc2CN)c2cc(CN3CCN(Cc4ccc5c(c4)OCO5)CC3)ccc21 [C302; HCl] | ≤ 5
≤ 5 | NC1(C(=O)NCCCn2cc(-c3ccc(OC(F)(F)F)cc3)c3cc(CN4CCC5(CC4)CN(Cc4c(Cl)cccc4Cl)C5)ccc32)CCNCC1 [C76; HCl] | 5 to 10
≤ 5 | COc1cccc(CN2CCC3(CC2)CCN(Cc2ccc4c(c2)c(-c2ccc(OC(F)(F)F)cc2)cn4CCCN)C3)c1 [C309; HCl] | ≤ 5
≤ 5 | NC1(C(=O)NCCCn2cc(-c3ccc(OC(F)(F)F)cc3)c3cc(CN4CCCN(Cc5c(Cl)cccc5Cl)CC4)ccc32)CCNCC1 [C78; HCl] | ≤ 5
≤ 5 | NC1(C(=O)NCCCn2cc(-c3ccc(OC(F)(F)F)cc3)c3cc(CN4CCN(Cc5ccccc5Cl)CC4)ccc32)CCNCC1 [C62; HCl] | ≤ 5
≤ 5 | NC1(C(=O)NCCCn2cc(-c3ccc(OC(F)(F)F)cc3)c3cc(CN4CC5CC4CN5Cc4c(Cl)cccc4Cl)ccc32)CCNCC1 (stereo not drawn) [C77; HCl] | ≤ 5
> 30 | CN1CCN(Cc2ccc3c(c2)c(-c2ccc(OC(F)(F)F)cc2)cn3CCCNC(=O)C2(N)CCNCC2)CC1 [C57; HCl] | > 30
≤ 5 | O=C(NCCCc1cn(-c2ccc(OC(F)(F)F)cc2)c2cc(CN3CCN(Cc4c(Cl)cccc4Cl)CC3)ccc12)C1CNCCN1 (stereo not drawn) [C74; HCl] | ≤ 5
≤ 5 | O=C(NCCCn1cc(-c2ccc(OC(F)(F)F)cc2)c2cc(CN3CCN(Cc4c(Cl)cccc4Cl)CC3)cnc21)C1CNCCN1 (stereo not drawn) [C176; HCl] | ≤ 5
≤ 5 | NC1(C(=O)NCCCn2cc(-c3ccc(OC(F)(F)F)cc3)c3cc(CN4CCN(Cc5ccccc5C(F)(F)F)CC4)ccc32)CCNCC1 [C63; HCl] | ≤ 5
≤ 5 | Cc1ccccc1CN1CCN(Cc2ccc3c(c2)c(-c2ccc(OC(F)(F)F)cc2)cn3CCCNC(=O)C2(N)CCNCC2)CC1 [C71; HCl] | ≤ 5
≤ 5 | NC1(C(=O)NCCCn2cc(-c3ccc(OC(F)(F)F)cc3)c3cc(CN4CC5CCC4CN5Cc4c(Cl)cccc4Cl)ccc32)CCNCC1 (stereo not drawn) [C69; HCl] | ≤ 5
≤ 5 | NC1(C(=O)NCCCn2cc(-c3ccc(OC(F)(F)F)cc3)c3cc(CN4CCN(Cc5c(Cl)cccc5Cl)CC4)ccc32)CCCCC1 [C82; HCl] | ≤ 5
≤ 5 | NC1(C(=O)NCCCn2cc(-c3ccc(OC(F)(F)F)cc3)c3cc(CN4CC5(CCN(Cc6c(Cl)cccc6Cl)CC5)C4)ccc32)CCNCC1 [C65; HCl] | ≤ 5
≤ 5 | COc1ccc(CN2CCN(Cc3ccc4c(c3)c(-c3ccc(OC(F)(F)F)cc3CN)cn4CCCN)CC2)c(Cl)c1 [C305; HCl] | ≤ 5
≤ 5 | NCCCn1cc(-c2ccc(OC(F)(F)F)cc2CN)c2cc(CN3CCN(Cc4ccc5c(c4)OCCO5)CC3)ccc21 [C303; HCl] | ≤ 5

EC50 [2] [µM] | SMILES | EC50 [1] [µM]
≤ 5 | NCCCn1cc(-c2ccccc2CN)c2cc(CN3CCN(Cc4c(Cl)cccc4Cl)CC3)ccc21 [C161; HCl] | ≤ 5
≤ 5 | NC1(C(=O)NCCCn2cc(-c3ccc(OC(F)(F)F)cc3)c3cc(CN4CC5CN(Cc6c(Cl)cccc6Cl)CC5C4)ccc32)CCNCC1 (stereo not drawn) [C70; HCl] | ≤ 5
≤ 5 | NC1(C(=O)NCCn2cc(-c3ccc(OC(F)(F)F)cc3)c3cc(CN4CCN(Cc5c(Cl)cccc5Cl)CC4)ccc32)CCNCC1 [C64; HCl] | ≤ 5
≤ 5 | COc1ccc(Cl)c(CN2CCN(Cc3ccc4c(c3)c(-c3ccc(OC(F)(F)F)cc3CN)cn4CCCN)CC2)c1 [C307; HCl] | ≤ 5
≤ 5 | NCCCn1cc(-c2ccc(OC(F)(F)F)cc2)c2cc(CN3CCN(Cc4c(Cl)cccc4Cl)CC3)cnc21 [C177; HCl] | ≤ 5
≤ 5 | COc1cccc(CN2CCN(Cc3ccc4c(c3)c(-c3ccc(OC(F)(F)F)cc3CN)cn4CCCN)CC2)c1Cl [C306; HCl] | ≤ 5
≤ 5 | O=C(NCCCn1cc(-c2ccc(OC(F)(F)F)cc2)c2cc(CN3CCN(Cc4c(Cl)cccc4Cl)CC3)ccc21)C1(NCc2cccnc2-c2cccc(Cl)c2)CCNCC1 [C114; HCl] | ≤ 5
≤ 5 | NC1(C(=O)NCCCc2cn(-c3ccc(OC(F)(F)F)cc3)c3cc(CN4CCN(Cc5c(Cl)cccc5Cl)CC4)ccc23)CCNCC1 [C75; HCl] | ≤ 5
≤ 5 | NC1(C(=O)NCCCn2cc(-c3ccc(OC(F)(F)F)cc3)c3cc(CN4CC5C(C4)C5NCc4c(Cl)cccc4Cl)ccc32)CCNCC1 (stereo not drawn) [C85; HCl] | ≤ 5
≤ 5 | COc1cc(CN2CCC3(CC2)CCN(Cc2ccc4c(c2)c(-c2ccc(OC(F)(F)F)cc2)cn4CCCN)C3)cc(OC)c1 [C308; HCl] | ≤ 5
≤ 5 | NCCCn1cc(-c2ccccc2CCN)c2cc(CN3CCN(Cc4ccccc4Cl)CC3)ccc21 [C131, HCl] | ≤ 5
≤ 5 | NC1(C(=O)NCCCn2cc(-c3ccc(OC(F)(F)F)cc3)c3cc(CN4CCN(Cc5ccccc5)CC4)ccc32)CCNCC1 [C72; HCl] | ≤ 5
≤ 5 | NC1(C(=O)NCCCc2cn(-c3ccc(OC(F)(F)F)cc3)c3cc(C(=O)N4CCN(Cc5c(Cl)cccc5Cl)CC4)ccc23)CCNCC1 [C80; HCl] | ≤ 5
≤ 5 | N#Cc1ccccc1CN1CCN(Cc2ccc3c(c2)c(-c2ccc(OC(F)(F)F)cc2)cn3CCCNC(=O)C2(N)CCNCC2)CC1 [C66; HCl] | ≤ 5
≤ 5 | NC1(C(=O)NCCCn2cc(-c3ccc(OC(F)(F)F)cc3)c3cc(CN4CCC5(CCN(Cc6c(Cl)cccc6Cl)CC5)C4)ccc32)CCNCC1 [C61; HCl] | ≤ 5

SMILES | EC50 [2] [µM] | EC50 [1] [µM]
CC(C)(C)OC(=O)NCCCc1cn(-c2ccc(OC(F)(F)F)cc2)c2cc(CN3CCN(Cc4c(Cl)cccc4Cl)CC3)ccc12 [C88; Formic acid] | > 30 | > 30
CC(C)(C)OC(=O)N1CCC(N)(C(=O)NCCCn2cc(-c3ccc(OC(F)(F)F)cc3)c3cc(CN4CCN(Cc5c(Cl)cccc5Cl)CC4)cnc32)CC1 [C175; Formic Acid] | 5 to 10 | ≤ 5
NC1(C(=O)NCCCn2cc(-c3ccc(OC(F)(F)F)cc3)c3cc(CN4CCCC5(CCN(Cc6c(Cl)cccc6Cl)CC5)C4)ccc32)CCNCC1 [C68; Formic acid] | ≤ 5 | ≤ 5
NCCCc1cn(-c2ccc(OC(F)(F)F)cc2)c2cc(CN3CCN(Cc4c(Cl)cccc4Cl)CC3)ccc12 [C87; Formic acid] | ≤ 5 | ≤ 5
O=C(NCCCn1cc(-c2ccc(OC(F)(F)F)cc2)c2cc(CN3CCN(Cc4c(Cl)cccc4Cl)CC3)ccc21)C1CNCCN1 (stereo not drawn) [C90; HCl] | ≤ 5 | ≤ 5
COc1ccc(CN2CCNC(C(=O)NCCCn3cc(-c4ccc(OC(F)(F)F)cc4)c4cc(CN5CCN(Cc6c(Cl)cccc6Cl)CC5)ccc43)C2)cc1OCc1ccc(Cl)c(Cl)c1 (stereo not drawn) [C89; Formic acid] | 5 to 10 | 5 to 10
NC1(C(=O)NCCCn2cc(-c3ccc(OC(F)(F)F)cc3)c3cc(CN4CCN(Cc5ccccc5OC(F)(F)F)CC4)ccc32)CCNCC1 [C58; Formic acid] | ≤ 5 | ≤ 5
NC1(C(=O)NCCCn2cc(-c3ccc(OC(F)(F)F)cc3)c3cc(CN4CCC5(CC4)CCN(Cc4c(Cl)cccc4Cl)CC5)ccc32)CCNCC1 [C67; Formic acid] | ≤ 5 | ≤ 5
